{"source": "patent US20050239875A1", "about": "“Derivatives of dihydronepetalactone and method for preparation” (priority 2003, published 2005)", "origin": "cited, not measured here", "system": "insect", "conditions": "disclosed by Hallahan in WO 03/079786", "data": [{"smiles": "CC1COC(=O)C2C(C)CCC12", "note": "(stereo not shown) [DHN, Dihydronepetalactone]", "values": [{"measurement": "insect repellent performance compared with N,N-diethyl-m-toluamide (DEET)", "value": "compares favorably"}]}]}
